Assay results taken from US20140135310A1, “SULPHONAMIDE DERIVATIVES OF ALICYCLIC AMINES FOR THE TREATMENT OF CENTRAL NERVOUS SYSTEM DISEASES” (Adamed Sp. z o.o., priority 2011, published 2014).

Legend:
5-HT7 receptor = biological target: T1, 5-HT7 receptor (Homo sapiens, UniProt P34969); test: Radioligand binding assay, serotoninergic 5-HT7 receptors; conditions: binding assay result in %, Table 5a;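 further: test compound at 1 µM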
T1 construct: purchased PerkinElmer
Method in brief: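 Competition binding at human 5-HT7 receptors with a radioligand, detected by scintillation counting; non-specific binding was defined with excess unlabelled ligand. IC50 came from Hill-equation fits of competition curves, and Ki from Cheng–Prusoff using radioligand concentration and Scatchard-derived KD.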

5-HT6 receptor = biological target: T2, 5-HT6 receptor (Homo sapiens, UniProt P50406); test: Radioligand binding assay, serotoninergic 5-HT6 receptors; conditions: binding assay result in %, Table 5a;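 further: test compound at 1 µM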
T2 construct: purchased PerkinElmer
T2 sequence (P50406 whole entry): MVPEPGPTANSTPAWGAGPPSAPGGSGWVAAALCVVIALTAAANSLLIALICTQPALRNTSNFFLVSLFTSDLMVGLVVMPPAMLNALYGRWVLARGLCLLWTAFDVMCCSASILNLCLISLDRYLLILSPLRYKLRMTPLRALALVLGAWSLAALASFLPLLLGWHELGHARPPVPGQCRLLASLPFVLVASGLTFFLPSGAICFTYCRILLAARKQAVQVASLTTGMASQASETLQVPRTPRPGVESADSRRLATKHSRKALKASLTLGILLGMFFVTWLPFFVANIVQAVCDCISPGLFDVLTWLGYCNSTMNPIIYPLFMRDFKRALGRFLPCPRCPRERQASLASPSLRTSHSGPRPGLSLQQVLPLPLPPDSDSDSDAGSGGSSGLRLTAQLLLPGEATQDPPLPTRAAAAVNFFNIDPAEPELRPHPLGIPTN
Method in brief: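 Values are Ki from Cheng–Prusoff, taking IC50 from Hill nonlinear regression of competition curves and KD from a Scatchard plot. Specific binding was total minus binding with excess unlabelled ligand. Radioligand displacement was detected by scintillation counting, and data were also reported as percent of control specific binding.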

[1] = test system: α1 adrenergic receptors (rat cerebral cortex); test: Radioligand binding assay, adrenergic α1 receptors; conditions: test compound 1×10^−6 M
Method in brief: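 Values derive from radioligand displacement, with non-specific binding defined by excess cold ligand and detection by scintillation. Hill-fit IC50s were converted to Ki via Cheng-Prusoff using Scatchard-derived Kd; percent inhibition of control specific binding also reported.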

5-HT2A receptor = biological target: T3, 5-HT2A receptor (Homo sapiens, UniProt P28223); test: Radioligand binding assay, serotoninergic 5-HT2A receptors; conditions: binding assay result in %, Table 5a
T3 construct: purchased PerkinElmer
T3 sequence (P28223 whole entry): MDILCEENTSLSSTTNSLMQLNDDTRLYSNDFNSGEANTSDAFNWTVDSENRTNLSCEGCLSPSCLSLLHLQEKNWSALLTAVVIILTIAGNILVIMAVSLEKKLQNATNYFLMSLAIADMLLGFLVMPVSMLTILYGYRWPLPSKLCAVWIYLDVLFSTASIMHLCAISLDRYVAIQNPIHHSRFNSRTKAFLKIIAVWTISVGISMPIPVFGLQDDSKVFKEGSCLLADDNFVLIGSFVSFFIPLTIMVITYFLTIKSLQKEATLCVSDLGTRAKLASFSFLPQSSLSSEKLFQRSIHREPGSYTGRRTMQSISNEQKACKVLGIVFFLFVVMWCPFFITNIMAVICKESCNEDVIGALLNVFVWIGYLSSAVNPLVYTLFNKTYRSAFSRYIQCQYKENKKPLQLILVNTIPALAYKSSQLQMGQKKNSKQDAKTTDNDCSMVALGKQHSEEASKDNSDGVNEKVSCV
Method in brief: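 Radioligand competition binding with scintillation counting; nonspecific binding defined by excess unlabelled ligand. Data as percent inhibition of control specific binding. IC50 by Hill-equation fit of competition curves; Ki by Cheng-Prusoff, with radioligand Kd from Scatchard plot.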

[2] = biological target: T4, 5-HT1A receptor (rat hippocampus) (Rattus norvegicus, UniProt P19327); test: Radioligand binding assay, serotoninergic 5-HT1A receptors; conditions: binding assay result in %, Table 5a;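 further: test compound at 1 µM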
T4 construct: hippocampus; from tissue; host or cells: rat hippocampus
T4 sequence (P19327 1-422): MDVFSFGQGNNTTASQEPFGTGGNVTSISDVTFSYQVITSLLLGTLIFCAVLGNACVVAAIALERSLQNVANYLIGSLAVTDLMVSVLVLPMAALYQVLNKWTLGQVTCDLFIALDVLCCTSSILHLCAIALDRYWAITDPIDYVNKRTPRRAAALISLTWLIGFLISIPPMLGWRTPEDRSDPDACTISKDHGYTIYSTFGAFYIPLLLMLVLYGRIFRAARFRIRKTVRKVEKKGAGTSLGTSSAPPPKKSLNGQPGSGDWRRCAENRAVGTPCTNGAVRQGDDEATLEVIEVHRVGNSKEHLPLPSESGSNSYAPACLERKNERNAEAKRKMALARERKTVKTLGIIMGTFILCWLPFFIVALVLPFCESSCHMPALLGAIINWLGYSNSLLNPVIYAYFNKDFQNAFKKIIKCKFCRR

[3] = biological target: dopaminergic receptors D2 (Homo sapiens, UniProt P14416); test: Radioligand binding assay, dopaminergic D2 receptors; conditions: binding assay, test compound 1×10^−6 M
Chain of dopaminergic receptors D2 (P14416 whole entry): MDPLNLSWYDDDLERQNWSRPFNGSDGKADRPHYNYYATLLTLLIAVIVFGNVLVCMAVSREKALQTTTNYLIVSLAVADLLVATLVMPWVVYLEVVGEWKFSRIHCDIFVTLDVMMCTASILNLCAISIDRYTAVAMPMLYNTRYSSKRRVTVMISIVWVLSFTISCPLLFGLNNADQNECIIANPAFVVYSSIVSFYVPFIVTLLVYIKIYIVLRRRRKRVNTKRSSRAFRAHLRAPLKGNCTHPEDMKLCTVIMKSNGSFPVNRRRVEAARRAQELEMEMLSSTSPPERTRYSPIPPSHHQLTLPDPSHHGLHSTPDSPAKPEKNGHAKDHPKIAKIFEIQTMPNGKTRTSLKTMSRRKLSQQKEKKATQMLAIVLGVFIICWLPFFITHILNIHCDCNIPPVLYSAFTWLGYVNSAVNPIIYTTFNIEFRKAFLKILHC
Method in brief: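 Total binding is counted by scintillation and non-specific binding subtracted using an excess of unlabelled ligand. IC50 comes from a Hill-equation fit with slope factor; Ki follows Cheng–Prusoff.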

[4] = biological target: T5, serotonin transporter (SERT) (Homo sapiens, UniProt P31645); test: Radioligand binding assay, serotonin transporter (SERT); conditions: binding assay, test compound 1×10^−6 M
T5 construct: expressed in transfected cells; host or cells: CHO cells
T5 sequence (P31645 whole entry): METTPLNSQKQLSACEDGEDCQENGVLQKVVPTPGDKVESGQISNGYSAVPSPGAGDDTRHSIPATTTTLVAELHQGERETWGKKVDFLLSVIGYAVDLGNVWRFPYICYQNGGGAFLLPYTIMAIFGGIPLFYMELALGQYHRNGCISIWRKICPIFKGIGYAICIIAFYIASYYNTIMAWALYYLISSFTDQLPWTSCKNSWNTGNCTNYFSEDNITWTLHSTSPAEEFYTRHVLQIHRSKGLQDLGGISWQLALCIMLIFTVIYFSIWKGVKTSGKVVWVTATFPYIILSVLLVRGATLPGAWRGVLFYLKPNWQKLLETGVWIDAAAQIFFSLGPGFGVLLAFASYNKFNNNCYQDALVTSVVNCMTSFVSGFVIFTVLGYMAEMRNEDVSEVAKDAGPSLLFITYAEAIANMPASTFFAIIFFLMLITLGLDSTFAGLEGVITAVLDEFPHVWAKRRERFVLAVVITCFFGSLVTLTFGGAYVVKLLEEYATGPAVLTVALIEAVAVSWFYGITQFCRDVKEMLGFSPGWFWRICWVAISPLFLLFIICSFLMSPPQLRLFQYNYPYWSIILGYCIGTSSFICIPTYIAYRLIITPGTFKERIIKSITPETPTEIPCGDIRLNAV
Method in brief: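 Radioligand competition binding with scintillation detection; specific binding is total minus binding under excess unlabelled ligand. Reported as % of control specific binding or % inhibition; IC50 from Hill-equation non-linear regression of competition curves, and Ki via Cheng-Prusoff using radioligand concentration and Scatchard-derived KD.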

[5] = biological target: dopaminergic receptors D3 (Homo sapiens, UniProt P35462); test: Radioligand binding assay, dopaminergic D3 receptors; conditions: test compound 1×10^−6 M
Chain of dopaminergic receptors D3 (P35462 whole entry): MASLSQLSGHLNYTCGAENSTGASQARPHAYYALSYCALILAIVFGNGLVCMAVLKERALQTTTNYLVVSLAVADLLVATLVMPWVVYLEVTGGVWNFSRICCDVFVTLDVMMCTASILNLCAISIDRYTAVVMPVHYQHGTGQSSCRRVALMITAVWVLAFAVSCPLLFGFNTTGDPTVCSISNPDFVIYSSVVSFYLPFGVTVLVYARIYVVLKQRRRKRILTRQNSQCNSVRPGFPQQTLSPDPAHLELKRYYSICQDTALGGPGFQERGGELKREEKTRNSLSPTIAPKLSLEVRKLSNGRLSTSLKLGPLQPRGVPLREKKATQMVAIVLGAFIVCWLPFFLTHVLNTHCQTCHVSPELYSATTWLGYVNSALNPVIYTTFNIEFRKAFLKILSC
Method in brief: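 Competition radioligand binding at human D2, D3 and D4.4 receptors, detected by scintillation counting; nonspecific binding defined with excess unlabelled ligand. Results as percent inhibition of control specific binding; IC50 by Hill-equation nonlinear regression; Ki via Cheng-Prusoff, with radioligand KD from Scatchard plot.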

T1 sequence (P34969 whole entry): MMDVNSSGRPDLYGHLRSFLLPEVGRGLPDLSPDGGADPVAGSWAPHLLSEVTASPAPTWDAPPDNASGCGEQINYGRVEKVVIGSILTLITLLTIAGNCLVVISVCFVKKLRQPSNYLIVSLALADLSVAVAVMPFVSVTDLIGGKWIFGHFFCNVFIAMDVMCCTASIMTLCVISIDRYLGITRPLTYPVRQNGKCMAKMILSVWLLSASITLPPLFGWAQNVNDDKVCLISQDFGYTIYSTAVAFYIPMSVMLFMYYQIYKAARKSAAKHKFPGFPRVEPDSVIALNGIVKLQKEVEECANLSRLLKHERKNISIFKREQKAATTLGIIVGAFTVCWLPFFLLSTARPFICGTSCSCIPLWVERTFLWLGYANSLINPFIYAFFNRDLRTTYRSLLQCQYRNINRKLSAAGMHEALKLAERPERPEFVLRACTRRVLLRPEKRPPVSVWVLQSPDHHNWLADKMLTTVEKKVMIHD

Row | Structure (SMILES) | 5-HT7 [%] (5-HT7 receptor) | 5-HT6 [%] (5-HT6 receptor) | α1 [%] [1] | 5-HT2A [%] (5-HT2A receptor) | 5-HT1A [%] [2] | D2 [%] [3] | SERT [%] [4] | D3 [%] [5]
1 | Cc1cccc(S(=O)(=O)NC2CCN(CCOc3cccc4c3OCCO4)CC2)c1 [Compound 118, N-[1-[2-(2,3-Dihydro-1,4-benzodioxan-8-yloxy)ethyl]-4-piperidine]-3-methyl-benzenesulphonamide] | 99% | 51% | 72% | 83% | 85% | 32% | 41% | 20%
2 | Cc1cccc(S(=O)(=O)NCC2CCN(CCCc3noc4cc(F)ccc34)CC2)c1 [Compound 36, N-[[1-[3-(6-Fluoro-1,2-benzoxazol-3-yl)propyl]-4-piperidine]methyl]-3-methylbenzenesulphonamide] | 88% | 75% | 103% | 59% | 18% | 57% | 0% | 38%
